The record followed here is the supplement of paper PMC11061612.

Test [1] concerns ME-180 (Cervical Carcinoma). Put plainly: Bliss excess, mean over the matrix (fraction); higher = more synergy. In outline: (§1)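 Cell lines grown in DMEM/F12 or RPMI with 10% FBS were plated in 1536-well plates and held 24 hours at 37°C, 5% CO2 before 72 hours of exposure to two-drug dose matrices, with DMSO typically at 0.2%. CellTiter-Glo 2.0 luminescence gave viability, which was converted to inhibition. Vehicle wells were set to 0 and blank wells to 1. Combination Emax is the second-highest inhibition in the matrix, and Bliss excess is the observed combination effect minus the expected EA + EB − EA·EB, where EA and EB are the single-agent effects.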

In test [2] the test system is ML-2 (Acute Myeloid Leukemia). Described as above. In outline:
as §1

Test [3] deals with A4-Fuk (B-Lymphoblastic Leukemia). The test is described as above. In outline: as §1
Test [4] deals with SNU-387 (Hepatocellular Carcinoma). The test is described as above. In short, it runs like this:
as §1

Test [5] relates to COLO-679 (Melanoma). The test is described as above. In outline:
as §1

Test [6] has as its system HAL-01 (B-Lymphoblastic Leukemia). Described as above. In short, it runs like this: as §1
Test [7] has as its system SW982 (Other Solid Carcinomas). Described as above. In outline: as §1
Test [8] relates to COLO-668 (Small Cell Lung Carcinoma). The description is as above. In short, it runs like this:
as §1

The subject of test [9] is MV-4-11 (Acute Myeloid Leukemia). The description is as above. In short, it runs like this:
as §1

Test [10] has as its system NCI-H1092 (Small Cell Lung Carcinoma). The test is described as follows: combination Emax (second highest fraction inhibited in the dose matrix, 72 h); higher = more inhibition; extreme values may be limits of the assay. In outline: as §1
The test system of test [11] is Hey (Ovarian Carcinoma). The description is as above. In short, it runs like this: as §1
For test [12], the system named is G-401 (Other Solid Carcinomas). The description is as above. In short, it runs like this: as §1
Test [13] relates to CADO-ES1 (Ewing's Sarcoma). The test is described as above. In outline: as §1
For test [14], the system named is SK-LU-1 (Lung Adenocarcinoma). The description is as above. In outline: as §1
Test [15] deals with NCI-H650 (Lung Adenocarcinoma). Described as above. In outline: as §1
The test system of test [16] is EW-1 (Ewing's Sarcoma). The description is as above. In short, it runs like this:
as §1

Test [17] concerns DU-145 (Prostate Carcinoma). The test is described as above. In outline: as §1
Test [18] deals with HCC1500 (Breast Carcinoma). The test is described as above. In short, it runs like this: as §1
Test [19] has as its system KOPN-8 (B-Lymphoblastic Leukemia). The description is as above. In short, it runs like this:
as §1

The test system of test [20] is ALL-SIL (T-Lymphoblastic Leukemia). Described as above. In outline: as §1
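Throughout, for Bliss excess, mean over the matrix: after 72 h of two-drug dosing.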

For `CN(CCO)CC[C@H](CSc1ccccc1)Nc1ccc(S(=O)(=O)NC(=O)c2ccc(N3CCC([C@@H](O)c4ccccc4-c4ccc(Cl)cc4)CC3)cc2)cc1S(=O)(=O)C(F)(F)F` [AZD4320] + C1CN(CCC1(C(=O)N[C@@H](CCO)C2=CC=C(C=C2)Cl)N)C3=NC=NC4=C3C=CN4 [Capivasertib] (first compound max 1 µM, 7x7, partner max 3 µM), the Bliss excess is -0.0238 in [1]; -0.0659 in test [2]; -0.0013 in test [3]; -0.0399 in test [4]; -0.0431 in [5]; 0.0022 in [6]. The figures for the Bliss excess in [7], in test [8] and in test [9] were -0.0426, 0.034 and 0.0185, respectively. The “combination Emax” value in [10] is 0.813; in [11], 0.106; in test [12], 0.529; in [13] it was 0.613; in test [14], 0.267; in test [15], 0.134. In addition, the “combination Emax” value in [16] turned out to be 0.67; in test [17] it was 0.0863; in test [18], 0.993; in test [19], 0.883; in test [20] it was 1.

In the case of `CN(CCO)CC[C@H](CSc1ccccc1)Nc1ccc(S(=O)(=O)NC(=O)c2ccc(N3CCC([C@@H](O)c4ccccc4-c4ccc(Cl)cc4)CC3)cc2)cc1S(=O)(=O)C(F)(F)F` [AZD4320] + C[C@@H]1COCCN1C2=NC(=NC(=C2)C3(CC3)[S@](=N)(=O)C)C4=C5C=CNC5=NC=C4 [AZD6738] (first compound max 1 µM, 7x7, partner max 10 µM), the Bliss excess in test [1] is 0.0005; in test [2] it was 0.0597; in test [3] it was -0.0169; in test [4] it was -0.0443; in test [5], -0.0266; in test [6], 0.0405. For the same molecule, the results for the Bliss excess in [7], in test [8] and in test [9] were -0.0374, 0.0325 and -0.0066, respectively. Also, the “combination Emax” value in test [10] worked out at 0.915; in [11], 0.869; in [12], 0.742; in test [13] it was 0.939; in test [14], 0.663; in test [15] it was 0.415. The “combination Emax” value stood at 0.997 in test [16]; 0.6 in test [17]; 1 in test [18]; 0.995 in [19]; 1 in [20].

Turning to `CN(CCO)CC[C@H](CSc1ccccc1)Nc1ccc(S(=O)(=O)NC(=O)c2ccc(N3CCC([C@@H](O)c4ccccc4-c4ccc(Cl)cc4)CC3)cc2)cc1S(=O)(=O)C(F)(F)F` [AZD4320] + Cc1cc2ncnn2cc1Nc1ncc2c(n1)n(C1CCOCC1)c(=O)n2C [AZD7648] (first compound max 1 µM, 7x7, partner max 10 µM), the Bliss excess in test [1] was -0.007; in test [2] it was -0.0141; in [3], -0.0211; in test [4], -0.041; in [5] it was -0.0351; in [6], 0.0071. Also, the results for the Bliss excess in [7], in [8] and in test [9] were 0.0065, -0.0431 and -0.0133, respectively. Besides, the “combination Emax” value in test [10] was 0.855; in [11] it was 0.247; in test [12], 0.424; in [13], 0.608; in test [14], 0.421; in [15], 0.134. The “combination Emax” value in test [16] is 0.745; in [18] it was 0.998; in test [19], 0.88; in [20] it was 1.

As for `Cc1c2c(nn1C)CSCc1cc(n(C)n1)CSc1cc(c3ccccc3c1)OCCCc1c(C(=O)O)n(C)c3c-2c(Cl)ccc13` [AZD5991] + Cn1cnc2c(F)c(Nc3ccc(Br)cc3Cl)c(C(=O)NOCCO)cc21 [Selumetinib] (first compound max 1 µM, 7x7, partner max 3 µM), the Bliss excess in test [1] is -0.0192; in test [2] it was 0.0659; in test [4], 0.064; in test [5] it was -0.0191; in test [6], 0.062; in [7], 0.0248. The Bliss excess in [8] was 0.106; in [9], 0.0172. Besides, the “combination Emax” value in [10] is 0.608; in test [11], 0.563; in [12] it was 0.474; in [13] it was 0.874; in [14], 0.476; in test [15] it was 0.432. Besides, the “combination Emax” value was determined as 0.273 in [16]; 0.221 in test [17]; 0.41 in [18]; 1 in test [19]; 1 in test [20].

Consider `Cc1cc2ncnn2cc1Nc1ncc2c(n1)n(C1CCOCC1)c(=O)n2C` [AZD7648] + O=C(c1cc(Cc2n[nH]c(=O)c3ccccc23)ccc1F)N1CCN(C(=O)C2CC2)CC1 [Olaparib] (first compound max 10 µM, 7x7, partner max 10 µM), for which the Bliss excess was -0.0432 in [1]; -0.0218 in [2]; -0.038 in test [3]; -0.0303 in [4]; -0.039 in test [5]; 0.0522 in [6]. Besides, the Bliss excess is 0.0002 in [7], -0.0105 in test [8] and -0.0389 in [9]. The “combination Emax” value in test [10] was found to be 0.111; in test [11], 0.266; in test [12], 0.434; in [13], 0.548; in [14], 0.329; in test [15], 0.14. In addition, the “combination Emax” value in [16] amounted to 0.732; in test [17] it was 0.171; in test [18] it was 0.269; in [19], 0.68; in test [20], 0.315.

Regarding `Cc1nc(Nc2ncc(C(=O)Nc3c(C)cccc3Cl)s2)cc(N2CCN(CCO)CC2)n1` [Dasatinib] + CC(=O)Nc1cccc(-n2c(=O)n(C3CC3)c(=O)c3c(Nc4ccc(I)cc4F)n(C)c(=O)c(C)c32)c1 [Trametinib] (first compound max 2 µM, 7x7, partner max 1 µM), the Bliss excess in test [1] is 0.0171; in test [2], -0.122; in test [3], -0.0013; in [4] it was 0.0213; in [5], -0.137; in test [6] it was 0.0436. Moreover, the Bliss excess in test [7] was -0.0319; in test [8], -0.0121; in test [9], -0.128. Besides, the “combination Emax” value came out at 0.125 in test [10]; 0.858 in test [11]; 0.903 in [12]; 0.151 in [13]; 0.511 in test [14]; 0.747 in test [15]. Moreover, the “combination Emax” value worked out at 0.153 in [16]; 0.457 in test [17]; 0.172 in [18]; 0.545 in test [19]; 1 in test [20].
